Data reported in patent US20260224563A1, “CRYSTALLINE FORMS OF 6-(3-((5-CHLORO-2-METHOXYPYRIDINE)-3-SULFONAMIDO)-2,6-DIFLUOROPHENYL)-N-METHYLIMIDAZO[1,5-A]PYRAZINE-1-CARBOXAMIDE AND METHODS FOR USING THE SAME” (HIBERCELL, INC., priority 2023, published 2026).
Where a name gives a salt, the structure may show the parent alone. Read-outs that look alike come from different tables or passages of the source.

Test: Solubility testing in organic solvents and water (visual, room temperature)
Assay type: physicochemical

With CNC(=O)c1ncn2cc(-c3c(F)ccc(NS(=O)(=O)c4cc(Cl)cnc4OC)c3F)ncc12 [Potassium salt Form III, 6-(3-((5-chloro-2-methoxypyridine)-3-sulfonamido)-2,6-difluorophenyl)-N-methylimidazo[1,5-a]pyrazine-1-carboxamide] the Solubility (Acetone, listed as Form III of the Potassium Salt) was roughly 500 µg/mL, the Solubility (BuOH, 24 °C, organic solvent or mixture, thermodynamic from solid, BuOH, read-out: Solubility) was less than 100 µg/mL and the Solubility (DCM, listed as Form III of the Potassium Salt) was less than 100 µg/mL. For the same compound, the Solubility (DMSO, 24 °C, organic solvent or mixture, thermodynamic from solid, DMSO, read-out: Solubility) was greater than 180000 µg/mL, the Solubility (DMSO, listed as Form III of the Potassium Salt) was greater than 180000 µg/mL and the Solubility (EtOAc, listed as Form III of the Potassium Salt) was less than 100 µg/mL. For the same compound, the Solubility (EtOH, listed as Form III of the Potassium Salt) was roughly 4000 µg/mL, the Solubility (H2O (water), listed as Form III of the Potassium Salt) was roughly 1000 µg/mL and the Solubility (IPA, listed as Form III of the Potassium Salt) was less than 100 µg/mL. The Solubility (IPAc, listed as Form III of the Potassium Salt) was less than 100 µg/mL, the Solubility (MEK, listed as Form III of the Potassium Salt) was less than 100 µg/mL and the Solubility (MTBE, 24 °C, organic solvent or mixture, thermodynamic from solid, MTBE, read-out: Solubility) was less than 100 µg/mL. It also gave a Solubility (MeCN, listed as Form III of the Potassium Salt) of less than 100 µg/mL, a Solubility (MeOH, listed as Form III of the Potassium Salt) greater than 40000 µg/mL and a Solubility (MeOH, listed as Form III of the potassium salt) greater than 40000 µg/mL. For the same compound, the Solubility (THF, listed as Form III of the Potassium Salt) was less than 100 µg/mL and the Solubility (heptane, 24 °C, organic solvent or mixture, thermodynamic from solid, Heptane, read-out: Solubility) was less than 100 µg/mL.
